Measured values from patent publication US12157738B2, “Macrocyclic inhibitors of ALK, TRKA, TRKB, and ROS1” (DANA-FARBER CANCER INSTITUTE, INC., priority 2018, dated 2024).

What was measured:
[1] = biological target: T1, ALK (Homo sapiens, UniProt Q9UM73); assay: Invitrogen Z'-lyte or LanthaScreen kinase IC50 assay; type: biochemical
T1 construct: similar enzymatic potency was observed against full length ALK and ALK mutants; purchased Invitrogen
Description: (§1) The IC50 values were generated from Invitrogen™'s Z'-lytet™ or LanthaScreen™ assays.

[2] = biological target: T2, ALK L1196M (Homo sapiens, UniProt Q9UM73, L1196M); assay: as above; type: biochemical
T2 construct: purchased Invitrogen
Description: as §1

[3] = biological target: T3, ROS1 (Homo sapiens, UniProt P08922); assay: as above; type: biochemical
T3 construct: purchased Invitrogen
Description: as §1

[4] = biological target: T4, TRK1 (Homo sapiens, UniProt P04629); assay: as above; type: biochemical
T4 construct: purchased Invitrogen
Description: as §1

[5] = biological target: T5, TRK2 (Homo sapiens, UniProt Q16620); assay: as above; type: biochemical
T5 construct: purchased Invitrogen
Description: as §1

[6] = biological target: T6, TRK3 (Homo sapiens, UniProt Q16288); assay: as above; type: biochemical
T6 construct: purchased Invitrogen
Description: as §1

[7] = biological target: T7, Ba/F3 EML4-ALK C1156Y cells (Homo sapiens, UniProt Q9UM73, C1156Y); assay: Cell viability assay (CellTiter-Glo, 72 hr); type: cell-based
T7 construct: expressed in transfected cells; host or cells: Ba/F3; the other entry of the earlier key: EML4 (Q9HC35, Echinoderm microtubule-associated protein-like 4)
Protocol: (§2) Parental Ba/F3 cells were cultured with an additional 1 ng/mL recombinant mouse IL-3 (ProSpec). […] Cell viability was evaluated using the CellTiter-Glo® Luminescent Cell Viability Assay (Promega) following the manufacturer's standards. […] Anti-proliferative best fit IC50 values were calculated by Graphpad Prism 7 software.

[8] = biological target: T8, Ba/F3 EML4-ALK G1202R cells (Homo sapiens, UniProt Q9UM73, G1202R); assay: Cell viability assay (CellTiter-Glo, 72 hr); type: cell-based
T8 construct: expressed in transfected cells; host or cells: Ba/F3; the other entry of the earlier key: EML4 (Q9HC35, Echinoderm microtubule-associated protein-like 4)
Protocol: as §2

[9] = biological target: T9, Ba/F3 EML4-ALK L1196M cells (Homo sapiens, UniProt Q9UM73, L1196M); assay: Cell viability assay (CellTiter-Glo, 72 hr); type: cell-based
T9 construct: expressed in transfected cells; host or cells: Ba/F3; the other entry of the earlier key: EML4 (Q9HC35, Echinoderm microtubule-associated protein-like 4)
Protocol: as §2

[10] = biological target: T10, Ba/F3 EML4-ALK cells (Homo sapiens, UniProt Q9UM73); assay: Cell viability assay (CellTiter-Glo, 72 hr); type: cell-based
T10 construct: expressed in transfected cells; host or cells: Ba/F3; the other entry of the earlier key: EML4 (Q9HC35, Echinoderm microtubule-associated protein-like 4)
Protocol: as §2

[11] = biological target: T11, CD74-NTRK1 Ba/F3 cells (Homo sapiens, UniProt P04629); assay: Cell viability assay (CellTiter-Glo, 72 hr); type: cell-based; conditions: for IC50: 72 hr
T11 construct: expressed in transfected cells; host or cells: Ba/F3; the other entry of the earlier key: CD74 (P04233, HLA class II histocompatibility antigen gamma chain)
Protocol: as §2

[12] = system: Parental WT Ba/F3 cells; assay: Cell viability assay (CellTiter-Glo, 72 hr); type: cell-based; conditions: for IC50: Mus musculus, BaF3, 72 hr
Protocol: (§3) Ba/F3 cell lines were cultured in RPMI-1640 media containing L-glutamine, supplemented with 10% fetal bovine serum (FBS) and 1% penicillin/streptomycin. Parental Ba/F3 cells were cultured with an additional 1 ng/mL recombinant mouse IL-3 (ProSpec). Mycoplasma testing was performed on a monthly basis and all lines were negative. Cell viability was evaluated using the CellTiter-Glo® Luminescent Cell Viability Assay (Promega) following the manufacturer's standards. 12-point dose titrations were tested in triplicate from 10000 nM to 0.056 nM over 72 hr. Anti-proliferative best fit IC50 values were calculated by Graphpad Prism 7 software.
The experimental protocol was as in Example 11.

[13] = system: tel-TRK fusion Ba/F3 cell lines; assay: IC50 in TEL-TRK Ba/F3 cells; type: cell-based; conditions: all 3 tel-TRK fusion Ba/F3 cell lines; FIG. 5
Description: The IC50 values were generated using ACD/Labs GraphPad Prism (version 7).

[14] = system: ALK wild type, ALK mutants, TRKA, TRKB, TRKC and ROS1; assay: AMBIT profile, DiscoverX KINOMEscan Assay platform; type: binding; conditions: for Ambit profile potency and selectivity: Example 10, FIG. 7A and 7B
Description: The AMBIT data were generated using DiscoverX KINOMEscan® Assay platform.
The experimental protocol was as in Example 9.

[15] = system: Ba/F3 cell lines expressing EML4-ALK and EML4-ALK with secondary mutations; assay: Anti-proliferation assay in EML4-ALK Ba/F3 cell lines; type: cell-based
Protocol: as §3

T5 sequence (Q16620 32-822): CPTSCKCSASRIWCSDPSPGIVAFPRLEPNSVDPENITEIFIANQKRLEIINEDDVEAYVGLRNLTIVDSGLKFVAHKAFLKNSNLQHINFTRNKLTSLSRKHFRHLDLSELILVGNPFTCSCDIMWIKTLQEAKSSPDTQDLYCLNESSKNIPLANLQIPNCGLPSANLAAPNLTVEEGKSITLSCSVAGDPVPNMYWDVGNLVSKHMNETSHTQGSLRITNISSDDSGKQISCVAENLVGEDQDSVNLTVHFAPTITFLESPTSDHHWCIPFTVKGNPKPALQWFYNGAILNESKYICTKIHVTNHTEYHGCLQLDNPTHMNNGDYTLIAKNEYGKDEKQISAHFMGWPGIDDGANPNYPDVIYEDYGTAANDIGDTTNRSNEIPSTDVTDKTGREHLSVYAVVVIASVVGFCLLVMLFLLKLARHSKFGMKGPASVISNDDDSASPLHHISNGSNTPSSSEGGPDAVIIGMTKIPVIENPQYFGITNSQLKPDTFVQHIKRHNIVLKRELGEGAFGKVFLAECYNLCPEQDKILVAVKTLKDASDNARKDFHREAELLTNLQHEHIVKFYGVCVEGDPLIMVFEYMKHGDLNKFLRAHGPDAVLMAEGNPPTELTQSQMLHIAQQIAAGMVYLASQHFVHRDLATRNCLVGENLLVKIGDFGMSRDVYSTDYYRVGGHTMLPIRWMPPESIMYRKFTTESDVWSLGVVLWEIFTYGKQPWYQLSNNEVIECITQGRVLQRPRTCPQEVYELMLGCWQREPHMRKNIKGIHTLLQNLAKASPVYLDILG
T4 sequence (P04629 33-796): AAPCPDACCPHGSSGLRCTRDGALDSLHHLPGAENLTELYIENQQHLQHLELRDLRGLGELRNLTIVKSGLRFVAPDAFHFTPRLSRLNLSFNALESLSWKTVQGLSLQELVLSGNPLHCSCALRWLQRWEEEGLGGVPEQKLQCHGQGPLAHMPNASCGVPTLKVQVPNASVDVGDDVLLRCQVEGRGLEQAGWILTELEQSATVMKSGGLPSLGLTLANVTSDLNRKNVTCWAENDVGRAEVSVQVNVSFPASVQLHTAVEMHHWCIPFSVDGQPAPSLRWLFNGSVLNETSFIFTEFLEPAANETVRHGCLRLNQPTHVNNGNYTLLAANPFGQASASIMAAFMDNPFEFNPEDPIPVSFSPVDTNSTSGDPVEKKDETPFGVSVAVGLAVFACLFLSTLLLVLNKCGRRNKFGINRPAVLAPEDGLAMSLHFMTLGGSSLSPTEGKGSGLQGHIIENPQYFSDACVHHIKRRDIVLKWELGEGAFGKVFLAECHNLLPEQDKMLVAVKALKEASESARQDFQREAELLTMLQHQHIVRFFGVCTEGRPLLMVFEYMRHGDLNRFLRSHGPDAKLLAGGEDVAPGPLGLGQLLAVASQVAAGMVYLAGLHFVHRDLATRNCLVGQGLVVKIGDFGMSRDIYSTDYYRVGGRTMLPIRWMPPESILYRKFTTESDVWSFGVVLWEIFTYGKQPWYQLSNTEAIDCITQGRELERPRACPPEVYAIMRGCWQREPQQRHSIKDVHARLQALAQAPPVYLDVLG
T1 sequence (Q9UM73 19-1620): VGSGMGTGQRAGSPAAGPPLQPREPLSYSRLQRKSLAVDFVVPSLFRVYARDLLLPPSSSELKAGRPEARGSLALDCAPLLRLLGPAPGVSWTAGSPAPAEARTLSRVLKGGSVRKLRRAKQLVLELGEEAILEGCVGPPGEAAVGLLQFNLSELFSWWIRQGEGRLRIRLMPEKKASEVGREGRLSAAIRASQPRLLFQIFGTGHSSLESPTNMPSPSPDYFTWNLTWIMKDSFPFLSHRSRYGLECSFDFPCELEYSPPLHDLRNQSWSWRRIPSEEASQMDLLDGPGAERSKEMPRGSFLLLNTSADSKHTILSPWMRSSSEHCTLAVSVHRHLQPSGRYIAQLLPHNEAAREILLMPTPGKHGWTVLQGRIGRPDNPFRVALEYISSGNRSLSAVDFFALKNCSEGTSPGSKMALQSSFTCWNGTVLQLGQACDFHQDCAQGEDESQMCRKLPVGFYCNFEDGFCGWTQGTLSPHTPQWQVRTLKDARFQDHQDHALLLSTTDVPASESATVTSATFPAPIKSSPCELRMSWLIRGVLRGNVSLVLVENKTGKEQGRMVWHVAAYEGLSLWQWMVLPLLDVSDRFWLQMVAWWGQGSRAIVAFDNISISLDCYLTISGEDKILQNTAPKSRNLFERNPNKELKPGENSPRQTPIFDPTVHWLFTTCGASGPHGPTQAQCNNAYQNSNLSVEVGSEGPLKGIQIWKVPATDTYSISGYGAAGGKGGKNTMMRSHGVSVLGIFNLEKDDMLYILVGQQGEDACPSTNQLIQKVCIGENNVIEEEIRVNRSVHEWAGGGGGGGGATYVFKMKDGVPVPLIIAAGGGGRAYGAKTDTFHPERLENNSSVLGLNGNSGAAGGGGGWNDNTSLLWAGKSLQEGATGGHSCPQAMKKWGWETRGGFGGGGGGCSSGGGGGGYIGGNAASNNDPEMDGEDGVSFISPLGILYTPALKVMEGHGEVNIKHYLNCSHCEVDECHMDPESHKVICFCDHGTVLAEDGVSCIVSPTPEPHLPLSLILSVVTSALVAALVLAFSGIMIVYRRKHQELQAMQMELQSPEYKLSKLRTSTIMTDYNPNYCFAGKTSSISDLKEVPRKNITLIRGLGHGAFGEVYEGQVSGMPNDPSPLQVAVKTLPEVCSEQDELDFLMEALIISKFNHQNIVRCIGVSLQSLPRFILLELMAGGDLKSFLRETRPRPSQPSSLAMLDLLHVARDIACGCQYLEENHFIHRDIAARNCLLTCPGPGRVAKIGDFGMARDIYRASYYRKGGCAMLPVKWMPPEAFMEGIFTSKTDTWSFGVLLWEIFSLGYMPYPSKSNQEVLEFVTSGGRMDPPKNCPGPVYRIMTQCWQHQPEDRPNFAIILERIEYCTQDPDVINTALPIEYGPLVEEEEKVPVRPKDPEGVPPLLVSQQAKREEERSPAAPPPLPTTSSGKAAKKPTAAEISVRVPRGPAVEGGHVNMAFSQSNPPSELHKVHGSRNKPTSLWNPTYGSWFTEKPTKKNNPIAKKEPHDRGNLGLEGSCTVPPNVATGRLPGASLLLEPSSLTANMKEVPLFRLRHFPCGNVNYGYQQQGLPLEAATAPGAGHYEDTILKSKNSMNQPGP
T11 sequence (P04629 510-796 limits assumed): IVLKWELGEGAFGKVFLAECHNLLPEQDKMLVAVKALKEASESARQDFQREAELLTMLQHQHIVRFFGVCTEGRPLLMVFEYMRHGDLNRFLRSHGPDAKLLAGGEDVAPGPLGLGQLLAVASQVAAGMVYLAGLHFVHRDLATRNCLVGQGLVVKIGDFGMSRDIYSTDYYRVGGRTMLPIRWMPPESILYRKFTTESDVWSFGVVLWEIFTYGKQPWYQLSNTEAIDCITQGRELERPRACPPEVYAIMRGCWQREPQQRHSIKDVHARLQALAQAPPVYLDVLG
T6 sequence (Q16288 32-839): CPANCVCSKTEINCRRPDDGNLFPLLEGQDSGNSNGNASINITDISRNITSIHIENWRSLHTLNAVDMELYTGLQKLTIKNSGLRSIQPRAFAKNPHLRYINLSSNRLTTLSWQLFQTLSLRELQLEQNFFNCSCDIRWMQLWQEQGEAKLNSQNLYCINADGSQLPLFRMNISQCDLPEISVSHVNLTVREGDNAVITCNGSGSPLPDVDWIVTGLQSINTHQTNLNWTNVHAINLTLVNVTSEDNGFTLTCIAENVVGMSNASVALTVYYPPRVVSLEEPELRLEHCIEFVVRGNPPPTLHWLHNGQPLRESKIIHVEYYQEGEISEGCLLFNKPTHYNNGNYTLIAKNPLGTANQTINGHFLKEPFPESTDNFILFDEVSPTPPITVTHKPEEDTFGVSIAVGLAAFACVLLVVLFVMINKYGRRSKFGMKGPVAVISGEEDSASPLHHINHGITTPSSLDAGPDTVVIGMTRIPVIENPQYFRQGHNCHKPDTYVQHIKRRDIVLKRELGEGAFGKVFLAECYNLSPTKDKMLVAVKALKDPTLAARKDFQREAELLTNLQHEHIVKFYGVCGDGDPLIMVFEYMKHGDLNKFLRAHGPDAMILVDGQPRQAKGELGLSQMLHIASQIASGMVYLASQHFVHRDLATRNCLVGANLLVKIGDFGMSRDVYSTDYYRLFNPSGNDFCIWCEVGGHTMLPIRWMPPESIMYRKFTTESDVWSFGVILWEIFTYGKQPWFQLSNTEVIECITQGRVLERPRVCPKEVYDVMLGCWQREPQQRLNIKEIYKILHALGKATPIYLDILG
T2 sequence (Q9UM73 19-1620 L1196M): as the sequence (Q9UM73 19-1620) above, with L1178M counted along it
T7 sequence (Q9UM73 1058-1620 C1156Y limits assumed): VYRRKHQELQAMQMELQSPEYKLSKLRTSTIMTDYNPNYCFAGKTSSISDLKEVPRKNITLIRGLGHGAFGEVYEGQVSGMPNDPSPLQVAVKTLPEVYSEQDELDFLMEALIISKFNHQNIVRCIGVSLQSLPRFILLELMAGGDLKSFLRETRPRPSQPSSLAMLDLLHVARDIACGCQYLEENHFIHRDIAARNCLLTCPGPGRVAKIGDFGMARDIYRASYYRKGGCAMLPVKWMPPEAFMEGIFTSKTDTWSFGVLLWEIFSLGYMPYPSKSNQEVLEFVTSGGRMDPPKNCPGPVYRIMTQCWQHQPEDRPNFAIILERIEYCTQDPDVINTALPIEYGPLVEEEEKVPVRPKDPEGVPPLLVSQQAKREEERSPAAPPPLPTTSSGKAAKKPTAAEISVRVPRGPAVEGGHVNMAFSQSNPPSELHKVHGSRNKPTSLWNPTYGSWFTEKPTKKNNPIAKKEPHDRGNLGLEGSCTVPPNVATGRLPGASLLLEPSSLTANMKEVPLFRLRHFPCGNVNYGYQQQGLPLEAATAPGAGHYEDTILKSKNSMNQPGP
T8 sequence (Q9UM73 1058-1620 G1202R limits assumed): as the sequence (Q9UM73 1058-1620 C1156Y limits assumed) above, with Y99C, G145R counted along it
T10 sequence (Q9UM73 1058-1620 limits assumed): as the sequence (Q9UM73 1058-1620 C1156Y limits assumed) above, with Y99C counted along it
T9 sequence (Q9UM73 1058-1620 L1196M limits assumed): as the sequence (Q9UM73 1058-1620 C1156Y limits assumed) above, with Y99C, L139M counted along it

Row | Compound | IC50 [1] [nM] | IC50 [2] [nM] | IC50 [3] [nM] | IC50 [4] [nM] | IC50 [5] [nM] | IC50 [6] [nM] | potency (IC50) relative to entrectinib in tel-TRK fusion Ba/F3 cell lines [13] | IC50 [7] [nM] | IC50 [8] [nM] | IC50 [9] [nM] | IC50 [10] [nM] | IC50 [11] [nM] | activity relative to entrectinib in CD74-NTRK1 expressing Ba/F3 cells ([11]; in words) | IC50 [12] [nM] | non-specific activity in parental Ba/F3 cells, compared in words [12] | Ambit profile selectivity (percent activity remaining) ([14]; Example 9, FIG. 6) | Ambit profile potency and selectivity [14] | anti-proliferative activity relative to lorlatinib ([15]; Example 11, FIG. 1) | activity relative to lorlatinib and JH-XIII-157-2 ([15]; Example 12, FIG. 2A-2D, Tables 2-5)
1 | COc1c2c(nn1C)CN(C)C(=O)c1ccc(F)cc1[C@H]1CCCN1c1cc-2cnc1N [Compound I-1b, (R)-26-amino-45-fluoro-15-methoxy-11,6-dimethyl-11H-6-aza-2(3,5)-pyridina-1(4,3)-pyrazola-3(1,2)-pyrrolidina-4(1,3)-benzenacycloheptaphan-5-one] | 9 | 20 | 0.9 | 4 | 0.9 | 0.7 | – | – | – | – | – | – | – | – | – | – | very potent and selective for ALK, TRKA, TRKB, and TRKC | – | –
2 | CN1CCN(c2ccc(C(=O)Nc3n[nH]c4ccc(Cc5cc(F)cc(F)c5)cc34)c(NC3CCOCC3)c2)CC1 [Entrectinib] | – | – | – | – | – | – | – | – | – | – | – | – | – | 2020 | more active than compound I-1a | – | – | – | –
3 | C[C@H]1Oc2cc(cnc2N)-c2c(nn(C)c2C#N)CN(C)C(=O)c2ccc(F)cc21 [Lorlatinib, reference compound] | – | – | – | – | – | – | – | – | – | – | – | 66.9 | – | 18900 | – | – | – | – | –

Second part, led by results:

Row | IC50 [1] [nM] | IC50 [2] [nM] | IC50 [3] [nM] | IC50 [4] [nM] | IC50 [5] [nM] | IC50 [6] [nM] | potency (IC50) relative to entrectinib in tel-TRK fusion Ba/F3 cell lines [13] | Compound | IC50 [7] [nM] | IC50 [8] [nM] | IC50 [9] [nM] | IC50 [10] [nM] | IC50 [11] [nM] | activity relative to entrectinib in CD74-NTRK1 expressing Ba/F3 cells ([11]; in words) | IC50 [12] [nM] | non-specific activity in parental Ba/F3 cells, compared in words [12] | Ambit profile selectivity (percent activity remaining) ([14]; Example 9, FIG. 6) | Ambit profile potency and selectivity [14] | anti-proliferative activity relative to lorlatinib ([15]; Example 11, FIG. 1) | activity relative to lorlatinib and JH-XIII-157-2 ([15]; Example 12, FIG. 2A-2D, Tables 2-5)
4 | 12 | 6 | 1.3 | 3 | 0.5 | 0.7 | more potent than entrectinib | CN1Cc2nn(C)cc2-c2cnc(N)c(c2)N2CCC[C@@H]2c2cc(F)ccc2C1=O [Compound I-1a, (R)-26-amino-45-fluoro-11,6-dimethyl-11H-6-aza-2(3,5)-pyridina-1(4,3)-pyrazola-3(1,2)-pyrrolidina-4(1,3)-benzenacycloheptaphan-5-one] | 151 | 1220 | 144 | 23.4 | 0.13 | entrectinib like activity | 19000 | less non-specific activity than entrectinib | quite selective toward ALK wild type, ALK mutants as well as TRKA, TRKB, TRKC and ROS1 | very potent and selective for ALK, TRKA, TRKB, and TRKC | lower activity | lower activity
5 | 5 | 3 | 0.6 | 1 | < 0.5 | 0.5 | – | Cc1c2c(nn1C)CN(C)C(=O)c1ccc(F)cc1[C@H]1CCCN1c1cc-2cnc1N [Compound I-1c, (R)-2^6-amino-4^5-fluoro-1^1,1^5,6-trimethyl-1^1H-6-aza-2(3,5)-pyridina-1(4,3)-pyrazola-3(1,2)-pyrrolidina-4(1,3)-benzenacycloheptaphan-5-one] | – | – | – | – | – | – | – | – | – | very potent and selective for ALK, TRKA, TRKB, and TRKC | – | –
6 | 7 | 3 | 1 | 6 | 5 | 2 | – | CN1Cc2nn(C)c(C#N)c2-c2cnc(N)c(c2)N2CCC[C@@H]2c2cc(F)ccc2C1=O [Compound I-1d, (R)-2^6-amino-4^5-fluoro-1,6-dimethyl-5-oxo-1^1H-6-aza-2(3,5)-pyridina-1(4,3)-pyrazola-3(1,2)-pyrrolidina-4(1,3)-benzenacycloheptaphane-15-carbonitrile] | – | – | – | – | – | – | – | – | – | very potent and selective for ALK, TRKA, TRKB, and TRKC | – | –
7 | 6 | 6 | 0.7 | 2 | 0.7 | 0.7 | – | Cn1cc2c(n1)CN(C1CC1)C(=O)c1ccc(F)cc1[C@H]1CCCN1c1cc-2cnc1N [Compound I-1e, (R)-2^6-amino-6-cyclopropyl-4^5-fluoro-1^1-methyl-1^1H-6-aza-2(3,5)-pyridina-1(4,3)-pyrazola-3(1,2)-pyrrolidina-4(1,3)-benzenacycloheptaphan-5-one] | – | – | – | – | – | – | – | – | – | – | – | –
